{"source": "ChEMBL document CHEMBL1201862", "about": "“PubChem BioAssay data set” (2004)", "key": {"[1]": {"experiment": "A375 melanoma cell viability loss, dose response, counter-screen for MITF inhibitor project, CellTiter-Glo luminescence, dry powder, set 4 (AID 624364);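 further: A375 melanoma cells are MITF independent so this is a counter screen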", "format": "functional, cell-based", "conditions": "A-375"}, "[2]": {"experiment": "A375 melanoma cell cytotoxicity, dose response, counter-screen for MITF inhibitor project, CellTiter-Glo luminescence, dry powder, set 2 (AID 624489);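 further: actives are compounds lowering A375 viability meaning general cytotoxicity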", "format": "functional, cell-based", "conditions": "A-375"}, "[3]": {"experiment": "A549 cell cytotoxicity, dose response, cytotoxicity control, plate reader, cherry-pick, antagonist series (AID 743412)", "format": "functional, cell-based"}, "[4]": {"experiment": "HepG2 cell cytotoxicity, dose response, cytotoxicity control, plate reader, cherry-pick, antagonist series (AID 743416)", "format": "functional, cell-based"}, "[5]": {"experiment": "LGR2 antagonists, dose response, cell-based, HEK293, CRE-luciferase reporter, cherry pick (AID 743342)", "format": "functional"}, "[6]": {"experiment": "MC4R antagonists, dose response, counter-screen for LGR2 antagonist project, cell-based, plate reader, cherry pick (AID 743444);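 further: transfected HEK 293 cells stimulated with alpha-MSH peptide; potency of inhibitors of the alpha-MSH evoked signal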", "format": "functional"}, "[7]": {"experiment": "HEK293 cell cytotoxicity, dose response, cytotoxicity control, plate reader, cherry-picked samples (AID 743446)", "format": "functional, cell-based"}, "[8]": {"experiment": "Cytotoxicity screening for potential Inhibitors of Bacterial Capsule Biogenesis (4).", "format": "functional"}, "[9]": {"experiment": "MITF Orthogonal Assay: SK-MEL-5 CTG Assay Measured in Cell-Based System Using Plate Reader - 2084-02_Inhibitor_Dose_DryPowder_Activity_Set7.", "format": "functional"}, "[10]": {"experiment": "MITF: Counter assay: A375 proliferation Measured in Cell-Based System Using Plate Reader - 2084-03_Inhibitor_Dose_DryPowder_Activity_Set8.", "format": "functional", "conditions": "A-375"}, "[11]": {"experiment": "TRPM1 promoter luciferase reporter signal decrease, dose response, MITF inhibitor project, cell-based, SK-MEL-5, dry powder, set 8 (AID 624430)", "format": "functional"}, "[12]": {"target": "Fatty acid synthase (Homo sapiens, UniProt P49327)", "sequence (P49327 whole entry, the tested form may be a part)": "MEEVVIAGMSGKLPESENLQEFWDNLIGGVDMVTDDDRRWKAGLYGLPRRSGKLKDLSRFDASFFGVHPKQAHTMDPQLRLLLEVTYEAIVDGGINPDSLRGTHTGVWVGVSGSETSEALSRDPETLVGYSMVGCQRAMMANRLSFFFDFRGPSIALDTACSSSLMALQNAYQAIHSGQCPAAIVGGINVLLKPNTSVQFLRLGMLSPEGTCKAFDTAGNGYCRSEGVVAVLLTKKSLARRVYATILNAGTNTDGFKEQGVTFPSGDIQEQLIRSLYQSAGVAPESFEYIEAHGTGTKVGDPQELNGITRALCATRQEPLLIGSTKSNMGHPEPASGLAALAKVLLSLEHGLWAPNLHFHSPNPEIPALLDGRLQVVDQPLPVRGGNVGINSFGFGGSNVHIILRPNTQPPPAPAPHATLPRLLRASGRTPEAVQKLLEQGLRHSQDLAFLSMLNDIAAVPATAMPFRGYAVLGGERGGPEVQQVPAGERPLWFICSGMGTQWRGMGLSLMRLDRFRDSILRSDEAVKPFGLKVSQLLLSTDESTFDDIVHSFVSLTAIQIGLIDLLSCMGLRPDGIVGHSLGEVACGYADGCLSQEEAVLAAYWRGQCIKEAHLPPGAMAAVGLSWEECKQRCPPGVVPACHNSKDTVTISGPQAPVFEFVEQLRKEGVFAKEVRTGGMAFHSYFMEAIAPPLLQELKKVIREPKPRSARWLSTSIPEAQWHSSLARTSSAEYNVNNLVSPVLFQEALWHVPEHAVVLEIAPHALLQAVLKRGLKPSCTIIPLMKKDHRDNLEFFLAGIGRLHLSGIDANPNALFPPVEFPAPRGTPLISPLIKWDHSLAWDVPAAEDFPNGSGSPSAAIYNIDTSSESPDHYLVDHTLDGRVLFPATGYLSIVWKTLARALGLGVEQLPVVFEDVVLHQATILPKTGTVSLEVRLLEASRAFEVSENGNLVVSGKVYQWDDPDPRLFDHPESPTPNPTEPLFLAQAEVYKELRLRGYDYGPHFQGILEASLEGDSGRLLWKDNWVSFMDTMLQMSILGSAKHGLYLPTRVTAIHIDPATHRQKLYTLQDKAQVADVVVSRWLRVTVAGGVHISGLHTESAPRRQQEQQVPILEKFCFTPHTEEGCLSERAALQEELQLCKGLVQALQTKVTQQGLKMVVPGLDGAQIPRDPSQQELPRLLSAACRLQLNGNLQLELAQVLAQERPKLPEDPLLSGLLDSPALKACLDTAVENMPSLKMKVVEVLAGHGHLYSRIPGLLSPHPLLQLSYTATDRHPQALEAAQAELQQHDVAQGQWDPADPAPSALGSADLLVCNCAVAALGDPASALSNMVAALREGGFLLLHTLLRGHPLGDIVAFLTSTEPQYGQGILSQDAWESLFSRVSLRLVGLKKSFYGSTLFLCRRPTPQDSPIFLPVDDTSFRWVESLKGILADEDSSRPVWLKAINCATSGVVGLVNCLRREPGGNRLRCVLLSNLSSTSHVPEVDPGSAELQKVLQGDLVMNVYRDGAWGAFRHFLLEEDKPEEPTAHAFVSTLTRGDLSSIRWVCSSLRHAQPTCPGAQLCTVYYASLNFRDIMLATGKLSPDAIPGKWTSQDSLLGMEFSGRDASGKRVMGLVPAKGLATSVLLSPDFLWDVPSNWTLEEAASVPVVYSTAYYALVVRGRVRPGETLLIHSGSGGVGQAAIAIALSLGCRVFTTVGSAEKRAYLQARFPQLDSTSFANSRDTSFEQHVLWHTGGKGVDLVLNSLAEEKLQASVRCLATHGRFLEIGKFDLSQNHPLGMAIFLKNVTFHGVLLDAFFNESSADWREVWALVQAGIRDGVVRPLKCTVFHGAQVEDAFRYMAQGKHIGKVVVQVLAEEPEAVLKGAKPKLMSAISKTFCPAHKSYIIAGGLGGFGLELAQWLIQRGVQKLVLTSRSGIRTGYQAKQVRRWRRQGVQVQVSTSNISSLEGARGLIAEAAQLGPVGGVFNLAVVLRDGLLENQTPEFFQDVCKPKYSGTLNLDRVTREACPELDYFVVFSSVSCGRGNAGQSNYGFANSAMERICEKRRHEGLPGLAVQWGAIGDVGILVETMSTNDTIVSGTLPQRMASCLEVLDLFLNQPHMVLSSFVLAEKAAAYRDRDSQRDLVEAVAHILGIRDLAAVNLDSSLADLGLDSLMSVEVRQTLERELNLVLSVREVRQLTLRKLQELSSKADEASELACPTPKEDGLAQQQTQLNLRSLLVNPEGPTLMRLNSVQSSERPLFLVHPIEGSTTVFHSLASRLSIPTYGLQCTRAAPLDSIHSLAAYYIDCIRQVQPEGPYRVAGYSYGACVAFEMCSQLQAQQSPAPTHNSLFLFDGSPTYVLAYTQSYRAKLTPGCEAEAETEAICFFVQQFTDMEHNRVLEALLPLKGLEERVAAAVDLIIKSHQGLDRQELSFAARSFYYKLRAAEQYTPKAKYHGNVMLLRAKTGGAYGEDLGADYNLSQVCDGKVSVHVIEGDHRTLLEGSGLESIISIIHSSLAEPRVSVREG", "experiment": "FAS thioesterase domain inhibitors, SAR follow-up, biochemical, endpoint fluorescence intensity, powder samples (AID 652164)", "format": "functional"}, "[13]": {"experiment": "YAP1 pathway inhibition via CTGF transcript levels, dose response, cell-based, DLD1 colon cancer, RT-qPCR, cherry-pick (AID 1053122)", "format": "functional", "conditions": "Cancer cell lines"}, "[14]": {"experiment": "HepG2 cell cytotoxicity, dose response, cytotoxicity control, ATP luminescence, cherry-pick, set 6 (AID 1053125)", "format": "functional, cell-based"}, "[15]": {"target": "Heat shock protein HSP 90-alpha (Homo sapiens, UniProt P07900)", "format": "functional, organism-based"}, "[16]": {"experiment": "Shn3 3'UTR reporter inhibitors, dose response, cell-based, Clone20 osteoblasts, firefly luciferase, cherry-picked (AID 624132)", "format": "functional"}, "[17]": {"experiment": "control 3'UTR Renilla luciferase suppression, dose response, counter-screen for Shn3 inhibitor project, cell-based, Clone20-Shn3RL, cherry-picked (AID 624133)", "format": "functional"}, "[18]": {"target": "T1, COUP transcription factor 2 (Homo sapiens, UniProt P24468)", "T1 sequence (P24468 whole entry)": "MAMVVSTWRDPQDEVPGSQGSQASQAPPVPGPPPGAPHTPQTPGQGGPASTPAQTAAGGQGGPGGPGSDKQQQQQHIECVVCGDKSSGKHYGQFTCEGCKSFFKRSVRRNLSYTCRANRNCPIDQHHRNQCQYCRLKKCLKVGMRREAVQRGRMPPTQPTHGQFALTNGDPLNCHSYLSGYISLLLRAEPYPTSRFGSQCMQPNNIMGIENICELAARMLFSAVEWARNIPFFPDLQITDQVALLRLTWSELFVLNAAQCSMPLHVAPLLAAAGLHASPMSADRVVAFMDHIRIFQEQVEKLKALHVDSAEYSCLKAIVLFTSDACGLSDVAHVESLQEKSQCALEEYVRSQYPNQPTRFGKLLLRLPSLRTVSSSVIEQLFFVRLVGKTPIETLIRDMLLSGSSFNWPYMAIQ", "experiment": "Luminescence-based cell-based high throughput dose response assay to identify inhibitors of COUP-TFII (NR2F2).", "format": "functional"}, "[19]": {"experiment": "inhibitors of PGC1a acetylation in cells, dose response, cell-based, cherry-picked samples (AID 720514);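 further: potency may reflect raised or lowered acetylation signal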", "format": "functional"}, "[20]": {"experiment": "HeLa 2N DNA content increase, dose response, cell-based, IC50 (AID 1117349)", "format": "functional"}, "[21]": {"experiment": "HeLa 4N DNA content increase, dose response, cell-based, IC50 (AID 1117351)", "format": "functional"}}, "note": "Activity calls are given as the source filed them."}
{"smiles": "CN1CCN(C2=C(NC(=O)c3ccccc3)C(=O)c3ccccc3C2=O)CC1", "values": [{"measurement": "AC50", "setting": "[1]", "result": "17 µM (active)"}, {"measurement": "AC50", "setting": "[2]", "result": "12.9 µM (active)"}]}
{"smiles": "C[C@H]1CCCCO[C@@H](CN(C)S(=O)(=O)c2ccc(Cl)cc2)[C@@H](C)CN([C@@H](C)CO)C(=O)c2cc(NC(=O)NC3CCCCC3)ccc2O1", "values": [{"measurement": "AC50", "setting": "[3]", "result": "20.1 µM (active)"}, {"measurement": "AC50", "setting": "[4]", "result": "> 52 µM (inactive)"}, {"measurement": "AC50", "setting": "[5]", "result": "32.4 µM (active)"}, {"measurement": "AC50", "setting": "[6]", "result": "30.1 µM (active)"}, {"measurement": "AC50", "setting": "[7]", "result": "> 52 µM (inactive)"}]}
{"smiles": "Cc1nc2ccc(C(=O)Nc3ccncc3)cc2s1", "values": [{"measurement": "CC50", "setting": "[8]", "result": "> 300 µM (active)"}]}
{"smiles": "O=C1C(Nc2ccc(F)cc2)=C(N2CCCC2)C(=O)c2ccccc21", "values": [{"measurement": "AC50", "setting": "[9]", "result": "0.625 µM (active)"}, {"measurement": "AC50", "setting": "[10]", "result": "11.9 µM (active)"}, {"measurement": "AC50", "setting": "[11]", "result": "0.583 µM (active)"}]}
{"smiles": "O=C(Nc1nc(-c2ccc(S(=O)(=O)N3CCOCC3)cc2)cs1)C1CCCC1", "values": [{"measurement": "IC50", "setting": "[12]", "result": "> 80 µM (inactive)"}]}
{"smiles": "CCc1nc(N2[C@H](CO)[C@@H](c3ccccc3-c3ccc(F)cc3)[C@@H]2C#N)sc1C", "values": [{"measurement": "AC50", "setting": "[13]", "result": "> 26 µM (inactive)"}]}
{"smiles": "Cc1cccn2c(=O)c3cc(C#N)/c(=N\\C(=O)c4cccs4)n(CC(C)C)c3nc12", "values": [{"measurement": "AC50", "setting": "[14]", "result": "> 52 µM (inactive)"}]}
{"smiles": "C[C@@H]1C[C@@H]([C@H](O)CC2CC(=O)NC(=O)C2)C(=O)[C@@H](C)C1", "note": "[CYCLOHEXIMIDE]", "values": [{"measurement": "AC50", "setting": "[15]", "result": "< 0.195 µM (active)"}, {"measurement": "AC50", "setting": "[16]", "result": "0.345 µM (active)"}, {"measurement": "AC50", "setting": "[17]", "result": "0.695 µM (active)"}, {"measurement": "IC50", "setting": "[18]", "result": "1.32 µM (active)"}, {"measurement": "AC50", "setting": "[19]", "result": "2.23 µM (active)"}, {"measurement": "IC50", "setting": "[20]", "result": "> 10 µM (inactive)"}, {"measurement": "IC50", "setting": "[21]", "result": "> 10 µM (inactive)"}]}
